Measured values from ChEMBL document CHEMBL3608284, “C4 phenyl aporphines with selective h5-HT(2B) receptor affinity” (Bioorg Med Chem Lett, 2015).

Legend:
[1] = target: T1, 5-hydroxytryptamine receptor 1B (Homo sapiens, UniProt P28222); assay: Displacement of [3H]GR125743 from 5HT1B receptor (unknown origin) at 10 uM
[2] = target: T1, 5-hydroxytryptamine receptor 1B; assay: Displacement of [3H]GR125743 from 5HT1B receptor (unknown origin)
[3] = target: T2, 5-hydroxytryptamine receptor 2C (Homo sapiens) (UniProt P28335); assay: Displacement of [3H]mesulergine from 5HT2C receptor (unknown origin) at 10 uM
T2 sequence (whole entry): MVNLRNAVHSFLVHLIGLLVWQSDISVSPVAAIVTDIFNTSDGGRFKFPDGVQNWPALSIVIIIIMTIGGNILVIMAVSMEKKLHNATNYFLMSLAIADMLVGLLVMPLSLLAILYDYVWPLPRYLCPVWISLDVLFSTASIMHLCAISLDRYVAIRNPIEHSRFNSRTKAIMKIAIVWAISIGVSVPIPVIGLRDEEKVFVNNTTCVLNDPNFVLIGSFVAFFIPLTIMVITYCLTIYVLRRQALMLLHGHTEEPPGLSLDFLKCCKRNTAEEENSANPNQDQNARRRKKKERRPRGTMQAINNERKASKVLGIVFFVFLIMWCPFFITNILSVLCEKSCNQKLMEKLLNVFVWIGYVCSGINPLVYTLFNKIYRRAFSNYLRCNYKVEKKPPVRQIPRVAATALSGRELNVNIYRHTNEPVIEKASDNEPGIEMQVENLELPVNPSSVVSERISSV

[4] = target: 5-hydroxytryptamine receptor 2A (Homo sapiens) (UniProt P28223); assay: Displacement of [3H]ketanserin from 5HT2A receptor (unknown origin) at 10 uM
[5] = target: 5-hydroxytryptamine receptor 7 (Homo sapiens) (UniProt P34969); assay: Displacement of [3H]LSD from 5HT7 receptor (unknown origin) at 10 uM
[6] = target: T3, 5-hydroxytryptamine receptor 2B (Homo sapiens, UniProt P41595); assay: Displacement of [3H]LSD from 5HT2B receptor (unknown origin)
[7] = target: T3, 5-hydroxytryptamine receptor 2B; assay: Displacement of [3H]LSD from 5HT2B receptor (unknown origin) at 10 uM
[8] = target: 5-hydroxytryptamine receptor 5A (Homo sapiens) (UniProt P47898); assay: Displacement of [3H]LSD from 5HT5A receptor (unknown origin) at 10 uM
[9] = target: 5-hydroxytryptamine receptor 1E (Homo sapiens) (UniProt P28566); assay: Displacement of [3H]5HT from 5HT1E receptor (unknown origin) at 10 uM
[10] = target: T4, 5-hydroxytryptamine receptor 1A (Homo sapiens) (UniProt P08908); assay: Displacement of [3H]-8-OH-DPAT from 5HT1A receptor (unknown origin) at 10 uM
T4 sequence (whole entry): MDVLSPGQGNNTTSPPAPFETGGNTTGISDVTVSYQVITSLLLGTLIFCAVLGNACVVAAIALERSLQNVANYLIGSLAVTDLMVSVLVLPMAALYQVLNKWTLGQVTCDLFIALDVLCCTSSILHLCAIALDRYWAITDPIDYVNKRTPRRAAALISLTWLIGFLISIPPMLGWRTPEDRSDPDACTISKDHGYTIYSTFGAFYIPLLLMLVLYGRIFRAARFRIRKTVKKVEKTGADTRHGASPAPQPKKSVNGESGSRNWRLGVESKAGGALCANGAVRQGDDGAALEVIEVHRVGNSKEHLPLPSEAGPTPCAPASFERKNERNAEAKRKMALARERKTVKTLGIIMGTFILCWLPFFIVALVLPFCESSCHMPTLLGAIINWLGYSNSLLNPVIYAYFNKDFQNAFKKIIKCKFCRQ

[11] = target: T5, 5-hydroxytryptamine receptor 3A (Homo sapiens) (UniProt P46098); assay: Displacement of [3H]LY278584 from 5HT3 receptor (unknown origin) at 10 uM
T5 sequence (whole entry): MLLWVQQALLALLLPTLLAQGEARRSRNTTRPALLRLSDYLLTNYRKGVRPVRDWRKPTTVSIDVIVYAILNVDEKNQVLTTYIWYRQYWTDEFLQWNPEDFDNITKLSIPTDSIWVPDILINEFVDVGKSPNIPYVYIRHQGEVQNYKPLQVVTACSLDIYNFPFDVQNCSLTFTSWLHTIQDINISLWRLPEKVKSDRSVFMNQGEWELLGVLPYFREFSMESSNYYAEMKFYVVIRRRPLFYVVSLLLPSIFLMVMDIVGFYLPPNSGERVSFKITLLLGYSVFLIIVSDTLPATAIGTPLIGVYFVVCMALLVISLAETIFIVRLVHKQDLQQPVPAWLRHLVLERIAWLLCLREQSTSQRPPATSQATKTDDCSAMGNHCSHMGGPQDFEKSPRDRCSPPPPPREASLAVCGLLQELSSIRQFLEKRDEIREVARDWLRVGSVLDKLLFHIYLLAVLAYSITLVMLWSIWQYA

[12] = target: 5-hydroxytryptamine receptor 1D (Homo sapiens) (UniProt P28221); assay: Displacement of [3H]GR125743 from 5HT1D receptor (unknown origin) at 10 uM
Chain of 5-hydroxytryptamine receptor 1D (Homo sapiens) (P28221 whole entry): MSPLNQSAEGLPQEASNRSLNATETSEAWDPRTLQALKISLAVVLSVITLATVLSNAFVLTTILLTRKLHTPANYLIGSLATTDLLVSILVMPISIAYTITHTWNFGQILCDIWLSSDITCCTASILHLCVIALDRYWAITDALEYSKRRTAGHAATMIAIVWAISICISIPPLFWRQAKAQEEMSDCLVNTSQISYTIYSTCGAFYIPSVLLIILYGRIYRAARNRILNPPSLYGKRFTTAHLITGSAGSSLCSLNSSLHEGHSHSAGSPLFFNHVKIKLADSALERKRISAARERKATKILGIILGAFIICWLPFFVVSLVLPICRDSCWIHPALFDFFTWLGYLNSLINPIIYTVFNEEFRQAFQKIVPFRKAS

T1 sequence (P28222 whole entry): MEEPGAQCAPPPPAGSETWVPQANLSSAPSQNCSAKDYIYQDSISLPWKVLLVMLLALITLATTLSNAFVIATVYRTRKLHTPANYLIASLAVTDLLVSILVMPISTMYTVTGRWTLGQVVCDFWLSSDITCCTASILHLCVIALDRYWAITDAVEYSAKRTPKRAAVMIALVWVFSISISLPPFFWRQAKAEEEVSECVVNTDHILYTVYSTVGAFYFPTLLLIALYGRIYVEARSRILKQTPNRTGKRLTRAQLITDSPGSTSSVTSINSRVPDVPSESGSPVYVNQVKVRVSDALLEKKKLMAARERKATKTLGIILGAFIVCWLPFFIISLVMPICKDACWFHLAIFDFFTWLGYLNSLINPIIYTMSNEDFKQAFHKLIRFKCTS
Chain of 5-hydroxytryptamine receptor 5A (Homo sapiens) (P47898 whole entry): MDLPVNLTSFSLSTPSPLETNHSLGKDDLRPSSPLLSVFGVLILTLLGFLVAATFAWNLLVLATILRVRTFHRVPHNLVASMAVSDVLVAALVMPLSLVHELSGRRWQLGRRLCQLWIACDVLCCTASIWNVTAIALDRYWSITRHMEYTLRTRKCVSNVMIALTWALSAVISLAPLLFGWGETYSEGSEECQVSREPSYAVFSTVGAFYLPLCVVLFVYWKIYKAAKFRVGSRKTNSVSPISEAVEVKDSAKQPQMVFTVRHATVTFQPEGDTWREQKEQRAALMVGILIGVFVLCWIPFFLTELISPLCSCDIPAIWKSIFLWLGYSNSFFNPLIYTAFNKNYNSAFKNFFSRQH
T3 sequence (P41595 whole entry): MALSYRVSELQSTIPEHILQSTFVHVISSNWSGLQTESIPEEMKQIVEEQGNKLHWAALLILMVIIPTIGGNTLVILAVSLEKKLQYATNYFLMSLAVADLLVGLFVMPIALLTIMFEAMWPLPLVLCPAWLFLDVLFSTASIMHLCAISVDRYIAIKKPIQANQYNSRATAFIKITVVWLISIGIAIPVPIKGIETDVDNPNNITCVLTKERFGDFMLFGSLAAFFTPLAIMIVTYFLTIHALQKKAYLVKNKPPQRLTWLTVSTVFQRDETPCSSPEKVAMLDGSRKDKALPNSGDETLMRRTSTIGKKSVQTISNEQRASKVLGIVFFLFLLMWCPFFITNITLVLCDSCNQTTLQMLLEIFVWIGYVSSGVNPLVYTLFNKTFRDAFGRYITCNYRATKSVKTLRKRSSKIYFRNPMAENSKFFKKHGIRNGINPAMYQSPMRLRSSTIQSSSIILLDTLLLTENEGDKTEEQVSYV
Chain of 5-hydroxytryptamine receptor 2A (Homo sapiens) (P28223 whole entry): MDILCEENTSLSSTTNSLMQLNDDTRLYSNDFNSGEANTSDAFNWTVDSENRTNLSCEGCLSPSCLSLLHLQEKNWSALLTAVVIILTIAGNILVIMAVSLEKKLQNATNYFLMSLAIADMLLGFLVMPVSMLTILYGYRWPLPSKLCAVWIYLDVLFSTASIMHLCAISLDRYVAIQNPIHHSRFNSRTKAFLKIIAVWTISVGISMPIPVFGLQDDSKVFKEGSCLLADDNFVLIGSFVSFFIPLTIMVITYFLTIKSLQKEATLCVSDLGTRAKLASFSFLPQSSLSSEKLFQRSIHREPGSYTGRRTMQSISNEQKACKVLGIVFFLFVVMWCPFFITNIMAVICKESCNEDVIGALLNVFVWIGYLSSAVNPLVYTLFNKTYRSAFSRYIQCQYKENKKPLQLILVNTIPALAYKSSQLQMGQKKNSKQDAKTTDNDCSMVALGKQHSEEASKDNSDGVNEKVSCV
Chain of 5-hydroxytryptamine receptor 1E (Homo sapiens) (P28566 whole entry): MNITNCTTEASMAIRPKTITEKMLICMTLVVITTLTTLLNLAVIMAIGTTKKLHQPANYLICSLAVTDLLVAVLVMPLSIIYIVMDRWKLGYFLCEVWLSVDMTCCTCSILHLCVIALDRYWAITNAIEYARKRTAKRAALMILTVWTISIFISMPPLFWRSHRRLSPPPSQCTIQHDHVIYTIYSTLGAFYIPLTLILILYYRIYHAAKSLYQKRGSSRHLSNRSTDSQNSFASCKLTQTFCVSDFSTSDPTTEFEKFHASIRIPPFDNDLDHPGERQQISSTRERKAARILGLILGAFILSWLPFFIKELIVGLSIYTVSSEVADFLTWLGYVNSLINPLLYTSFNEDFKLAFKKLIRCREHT
Chain of 5-hydroxytryptamine receptor 7 (Homo sapiens) (P34969 whole entry): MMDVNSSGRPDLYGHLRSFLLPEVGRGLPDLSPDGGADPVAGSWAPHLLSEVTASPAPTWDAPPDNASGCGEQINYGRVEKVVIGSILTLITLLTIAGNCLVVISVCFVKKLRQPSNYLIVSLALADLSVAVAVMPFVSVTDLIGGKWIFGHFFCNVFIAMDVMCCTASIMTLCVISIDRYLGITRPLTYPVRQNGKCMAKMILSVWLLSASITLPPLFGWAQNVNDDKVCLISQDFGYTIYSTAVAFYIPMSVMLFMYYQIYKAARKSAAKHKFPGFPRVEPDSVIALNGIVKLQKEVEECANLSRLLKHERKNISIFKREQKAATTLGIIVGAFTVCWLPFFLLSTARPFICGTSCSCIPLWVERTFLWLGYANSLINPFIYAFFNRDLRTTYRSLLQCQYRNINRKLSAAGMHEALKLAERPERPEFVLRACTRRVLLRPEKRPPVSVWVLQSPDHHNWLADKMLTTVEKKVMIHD

| Compound | inhibition [1] | Ki [2] | inhibition [3] | inhibition [4] | inhibition [5] | Ki [6] | inhibition [7] | inhibition [8] | inhibition [9] | inhibition [10] | inhibition [11] | inhibition [12] |
| --- | --- | --- | --- | --- | --- | --- | --- | --- | --- | --- | --- | --- |
| COc1cc2c3c(c1OCC1CC1)-c1cc4c(cc1CC3N(C)CC2c1ccccc1)OCO4 (stereo not given) | 60.2% | 2470 nM | 32.4% | 42.9% | 6.9% | 299 nM | 77.1% | 5.2% | 27.4% | -9.8% | 7.7% | 31.9% |
| COc1cc2c3c(c1OCc1ccc(Br)cc1)-c1cc4c(cc1CC3N(C)CC2c1ccccc1)OCO4 (stereo not given) | 2.1% |  | -6.6% | 15.8% |  |  | 24.4% | -9.3% | -0.1% | 25.9% | -7.4% | 9.8% |
| COc1cc2c3c(c1O)-c1cc4c(cc1CC3N(C)CC2c1ccccc1)OCO4 (stereo not given) | -5.2% |  | -2.3% | 29.2% | 31.3% | 715 nM | 50.3% | 1.8% | 11% | 24.2% | 4.1% | 15.8% |
| CCCCOc1c(OC)cc2c3c1-c1cc4c(cc1CC3N(C)CC2c1ccccc1)OCO4 (stereo not given) | 41.4% |  | 48% | 40.9% | -5.1% | 601 nM | 76.1% | 17.6% | 7.3% | 18.4% | 11.6% | 24% |
| CCOc1c(OC)cc2c3c1-c1cc4c(cc1CC3N(C)CC2c1ccccc1)OCO4 (stereo not given) | 20.6% |  | 13.5% | 40.1% | 26% | 209 nM | 83.3% | -7.6% | 10.3% | -0.9% | -2.7% | 29.7% |
| CCCOc1c(OC)cc2c3c1-c1cc4c(cc1CC3N(C)CC2c1ccccc1)OCO4 (stereo not given) | 51.7% | 1610 nM | 13.1% | 32.3% | 8.6% | 307 nM | 84% | 5.2% | 2.1% | 27% | 0.7% | 22.4% |
| COc1cc2c3c(c1OC)-c1cc4c(cc1CC3N(CC1CC1)CC2c1ccccc1)OCO4 (stereo not given) | 16.2% |  | 9.4% | 9.6% | 18.3% | 1430 nM | 73.7% |  | 3.5% | 13.3% |  | 22.4% |
| CCN1CC(c2ccccc2)c2cc(OC)c(OC)c3c2C1Cc1cc2c(cc1-3)OCO2 (stereo not given) | 23.6% |  | -1.6% | 12.8% | 8.9% | 419 nM | 88.4% |  | 5% | 3.3% | -4.1% | 27.4% |
| C=CCOc1c(OC)cc2c3c1-c1cc4c(cc1CC3N(C)CC2c1ccccc1)OCO4 (stereo not given) | 19.4% |  | 28.8% | 47.8% | 24.7% | 416 nM | 72.1% | -9.8% | 3.3% | 19.2% | 8.3% | 22.6% |
| CCCCCCOc1c(OC)cc2c3c1-c1cc4c(cc1CC3N(C)CC2c1ccccc1)OCO4 (stereo not given) | 4.3% |  | 49.3% | 19.9% |  | 663 nM | 63.6% | -6.2% | 2.4% |  | 0.8% | 13.4% |
